Tests used:
Experiment in all cases: normalised percent inhibition of luminescence (vs positive and negative controls); higher = stronger inhibition
[1] = tested on: NanoLuc luciferase (NLuc)
Procedure: (§1)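 Concentration-response (>=11 concentrations) of metal salts on purified FLuc, NLuc or RLuc luminescence in screening (SC) or 100 mM HEPES (H) buffer; salt pre-incubated with enzyme 10 min at RT, read 10 min after substrate. Normalised percent inhibition vs plate positive (PTC-124, isradipine, BTS) and DMSO negative controls; triplicate wells.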

[2] = tested on: Renilla luciferase (RLuc)
Procedure: as §1

[3] = tested on: firefly luciferase (FLuc)
Procedure: as §1

O.O.O.O.O.O.O.O=S(=O)([O-])[O-].[Mg+2] [magnesium sulfate]
normalised percent inhibition [%], 100 mM HEPES buffer
Settings | [1] | [2] | [3]
metal salt concentration 0.0001 mM | 6.62 | -6.9 | -19.2
metal salt concentration 0.00025 mM | 1.39 | -4.68 | -27.4
metal salt concentration 0.0005 mM | -0.0243 | -11.6 | -11
metal salt concentration 0.001 mM | -0.202 | -17 | -24
metal salt concentration 0.025 mM | -2.3 | -30.1 | -31.5
metal salt concentration 0.05 mM | 0.502 | -11.6 | -6.49
metal salt concentration 0.1 mM | 1.8 | -22.7 | -20
metal salt concentration 0.5 mM | 1.22 | -0.986 | -19.2
metal salt concentration 1 mM | -4.91 | -23.4 | -17.2
metal salt concentration 2.5 mM | -6.56 | -40.4 | -12.5
metal salt concentration 5 mM | -5.03 | -22.4 | 4.85

O=S(=O)([O-])[O-].[Fe+2] [iron(II) sulfate]
normalised percent inhibition [%]
Settings | [1] | [2] | [3]
metal salt concentration 0.0001 mM, 100 mM HEPES buffer | -2.4 | 41.8 | -15.4
metal salt concentration 0.00025 mM, 100 mM HEPES buffer | 0.242 | -25.1 | -21.3
metal salt concentration 0.0005 mM, 100 mM HEPES buffer | 3.64 | -18.6 | -14.6
metal salt concentration 0.001 mM, 100 mM HEPES buffer | 0.251 | -4.06 | 25.9
metal salt concentration 0.002 mM, screening conditions buffer | -6.27 | 2.02 | 1.35
metal salt concentration 0.005 mM, screening conditions buffer | 5.45 | 11 | 9.94
metal salt concentration 0.01 mM, screening conditions buffer | 3.08 | 18.2 | 4.1
metal salt concentration 0.02 mM, screening conditions buffer | 7.25 | 17.5 | 6.54
metal salt concentration 0.025 mM, 100 mM HEPES buffer | 3.97 | 28.6 | 62.5
metal salt concentration 0.05 mM, 100 mM HEPES buffer | 6.24 | 50.9 | 100.1
metal salt concentration 0.05 mM, screening conditions buffer | 11.5 | 3.55 | 7.51
metal salt concentration 0.1 mM, 100 mM HEPES buffer | 19.9 | 85.8 | 99.99
metal salt concentration 0.1 mM, screening conditions buffer | 37.5 | 58.5 | -0.76
metal salt concentration 0.2 mM, screening conditions buffer | 49.5 | 74.4 | 28.7
metal salt concentration 0.5 mM, 100 mM HEPES buffer | 67.9 | 104.9 | 100.2
metal salt concentration 0.5 mM, screening conditions buffer | 81.1 | 93.3 | 94.1
metal salt concentration 1 mM, 100 mM HEPES buffer | 87.7 | 105 | 100.3
metal salt concentration 1 mM, screening conditions buffer | 138 | 96 | 99.42
metal salt concentration 2.5 mM, 100 mM HEPES buffer | 101 | 104 | 100.2
metal salt concentration 2.5 mM, screening conditions buffer | 157.3 | 103.6 | 100.4
metal salt concentration 5 mM, 100 mM HEPES buffer | 101.93 | 107 | 100.2
metal salt concentration 5 mM, screening conditions buffer | 158.9 | 105 | 101.2

[Cl][Sn][Cl] [tin(II) chloride]
normalised percent inhibition [%]
Settings | [1] | [2] | [3]
metal salt concentration 0.0001 mM, 100 mM HEPES buffer | -1.04 | -43.6 | -37.6
metal salt concentration 0.00025 mM, 100 mM HEPES buffer | -2.95 | -34 | -36.8
metal salt concentration 0.0005 mM, 100 mM HEPES buffer | -1.03 | -29.8 | -25.8
metal salt concentration 0.001 mM, 100 mM HEPES buffer | -2.16 | -28.6 | -45.1
metal salt concentration 0.002 mM, screening conditions buffer | 1.6 | 2.49 | -6.84
metal salt concentration 0.005 mM, screening conditions buffer | 4.64 | -3.55 | -10.8
metal salt concentration 0.01 mM, screening conditions buffer | 3.42 | 13.4 | 6.44
metal salt concentration 0.02 mM, screening conditions buffer | -0.105 | -6.49 | 1.32
metal salt concentration 0.025 mM, 100 mM HEPES buffer | -3.24 | -15.8 | -26.1
metal salt concentration 0.05 mM, 100 mM HEPES buffer | 6.37 | -15 | -13.9
metal salt concentration 0.05 mM, screening conditions buffer | -1.81 | -5.21 | 19.1
metal salt concentration 0.1 mM, 100 mM HEPES buffer | -5.15 | -35 | -9.51
metal salt concentration 0.1 mM, screening conditions buffer | 1.62 | -1.32 | 56.5
metal salt concentration 0.2 mM, screening conditions buffer | 6.52 | -3.23 | 99.33
metal salt concentration 0.5 mM, 100 mM HEPES buffer | -1.5 | -38.9 | 11.7
metal salt concentration 0.5 mM, screening conditions buffer | 8.42 | -6.09 | 100.6
metal salt concentration 1 mM, 100 mM HEPES buffer | -2.37 | -53 | 37.6
metal salt concentration 1 mM, screening conditions buffer | 20.2 | -5.29 | 100.2
metal salt concentration 2.5 mM, 100 mM HEPES buffer | -3.02 | -45.3 | 63.9
metal salt concentration 2.5 mM, screening conditions buffer | 93.83 | -6.8 | 100.4
metal salt concentration 5 mM, 100 mM HEPES buffer | 11.3 | 79.9 | 100.7
metal salt concentration 5 mM, screening conditions buffer | 137.11 | 103 | 100.5

Source: the supplement of paper PMC11628255, “Interference of metal ions on the bioluminescent signal of firefly, Renilla, and NanoLuc luciferases in high-throughput screening assays” (Frontiers in Chemistry, 2024)
